Data reported in ChEMBL document CHEMBL4368862, “Design, synthesis, and anticancer activity evaluation of irreversible allosteric inhibitors of the ubiquitin-conjugating enzyme Ube2g2” (Medchemcomm, 2018).
Calls of active or inactive are those of the source. The rule behind the calls is not given here.

Tests used:
[1] = molecular target: T1, Ubiquitin-conjugating enzyme E2 G2 (Homo sapiens) (UniProt P60604); assay: Binding affinity to recombinant TEV cleavage site-fused-His6-tagged Ube2g2 (unknown origin) expressed in Escherichia coli Rosetta2 (DE3) assessed as compound-protein complex formation at 5 uL measured after overnight incubation at pH 7.4 by LC/MS analysis
T1 sequence (whole entry): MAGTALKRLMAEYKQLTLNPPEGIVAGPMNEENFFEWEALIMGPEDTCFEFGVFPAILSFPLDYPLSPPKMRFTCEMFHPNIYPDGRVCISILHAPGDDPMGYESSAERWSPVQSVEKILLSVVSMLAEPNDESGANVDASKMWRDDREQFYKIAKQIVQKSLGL

[2] = molecular target: T1, Ubiquitin-conjugating enzyme E2 G2 (Homo sapiens); assay: (§1) Binding affinity to recombinant TEV cleavage site-fused-His6-tagged Ube2g2 (unknown origin) expressed in Escherichia coli Rosetta2 (DE3) assessed as molecular weight of compound-protein conjugate at 5 uL measured after overnight incubation at pH 8.5 by LC/MS analysis (reference value: 18491 Da)
[3] = molecular target: T1, Ubiquitin-conjugating enzyme E2 G2 (Homo sapiens); assay: as §1, with “assessed as modification of Cys48 residue by measuring molecular weight” for “assessed as molecular weight”
[4] = molecular target: T1, Ubiquitin-conjugating enzyme E2 G2 (Homo sapiens); assay: as §1, with “assessed as modification of Cys75 residue by measuring molecular weight” for “assessed as molecular weight”
[5] = molecular target: T1, Ubiquitin-conjugating enzyme E2 G2 (Homo sapiens); assay: as §1, with “assessed as modification of Cys89 residue by measuring molecular weight” for “assessed as molecular weight”

Row | Activity [1] | Activity [2] | Activity [3] [Da] | Activity [4] [Da] | Activity [5] [Da] | Structure (SMILES)
1 | inactive | 18900 Da |  |  |  | C=CC(=O)N[C@H](/C=C/C(=O)OCC)Cc1ccc(-c2cc(Cl)cc(Cl)c2)cc1
2 | inactive |  | 18800 | 19200 | 19500 | C=CC(=O)N[C@H](CO)Cc1ccc(-c2cc(Cl)cc(Cl)c2)cc1
3 | inactive | inactive |  |  |  | C=CCC(=O)N[C@H](CO)Cc1ccc(-c2cc(Cl)cc(Cl)c2)cc1
4 | inactive | 18800 to 19200 Da |  |  |  | C=CC(=O)N[C@@H](CO)Cc1ccc(-c2cc(Cl)cc(Cl)c2)cc1
5 | inactive | inactive |  |  |  | C=CCC(=O)N[C@@H](/C=C/C(=O)O)Cc1ccc(-c2cc(Cl)cc(Cl)c2)cc1
6 | inactive | 18900 Da |  |  |  | C=CC(=O)N[C@@H](Cc1ccc(-c2cc(Cl)cc(Cl)c2)cc1)[C@H](O)[C@@H](O)C(=O)OCC
7 | inactive | inactive |  |  |  | C=CCC(=O)N[C@@H](CO)Cc1ccc(-c2cc(Cl)cc(Cl)c2)cc1

Further lines, the compound ahead of its results:

Row | Structure (SMILES) | Activity [1] | Activity [2] | Activity [3] [Da] | Activity [4] [Da] | Activity [5] [Da]
8 | C=CCC(=O)N[C@@H](Cc1ccc(-c2cc(Cl)cc(Cl)c2)cc1)[C@H](O)[C@@H](O)C(=O)O | inactive | inactive |  |  | 
9 | C=CC(=O)N[C@H](Cc1ccc(-c2cc(Cl)cc(Cl)c2)cc1)[C@@H](O)[C@H](O)C(=O)OCC | inactive | 18900 Da |  |  | 
10 | C=CCC(=O)N[C@H](Cc1ccc(-c2cc(Cl)cc(Cl)c2)cc1)[C@@H](O)[C@H](O)C(=O)O | inactive | inactive |  |  | 
11 | C=CCC(=O)N[C@H](Cc1ccc(-c2cc(Cl)cc(Cl)c2)cc1)[C@@H](O)[C@H](O)C(=O)OCC | inactive | inactive |  |  | 
12 | CC(C)(C)OC(=O)N[C@H](C=O)Cc1ccc(-c2cc(Cl)cc(Cl)c2)cc1 | inactive | 18900 to 19300 Da |  |  | 
13 | C=CCC(=O)N[C@@H](Cc1ccc(-c2cc(Cl)cc(Cl)c2)cc1)[C@H](O)[C@@H](O)C(=O)OCC | inactive | inactive |  |  | 
14 | C=CC(=O)N[C@@H](/C=C/C(=O)O)Cc1ccc(-c2cc(Cl)cc(Cl)c2)cc1 | inactive | 18900 Da |  |  | 
15 | C=CC(=O)N[C@@H](Cc1ccc(-c2cc(Cl)cc(Cl)c2)cc1)[C@H](O)[C@@H](O)C(=O)O | inactive | inactive |  |  | 
16 | CCOC(=O)/C=C/[C@H](Cc1ccc(-c2cc(Cl)cc(Cl)c2)cc1)NC(=O)OC(C)(C)C | inactive | 18900 Da |  |  | 
17 | C=CC(=O)N[C@H](Cc1ccc(-c2cc(Cl)cc(Cl)c2)cc1)[C@@H](O)[C@H](O)C(=O)O | inactive | 18900 to 19300 Da |  |  | 
18 | C=CC(=O)N[C@@H](/C=C/C(=O)OCC)Cc1ccc(-c2cc(Cl)cc(Cl)c2)cc1 | inactive | 18900 Da |  |  | 
19 | C=CCC(=O)N[C@@H](/C=C/C(=O)OCC)Cc1ccc(-c2cc(Cl)cc(Cl)c2)cc1 | inactive | inactive |  |  | 
20 | C=CCC(=O)N[C@H](/C=C/C(=O)OCC)Cc1ccc(-c2cc(Cl)cc(Cl)c2)cc1 | inactive | inactive |  |  | 
